Experiments:
[1] = biological target: T1, Indoleamine 2,3-dioxygenase 1 (Homo sapiens, UniProt P14902); experiment: Inhibition of IDO1 in IFN-gamma treated human HeLa cells incubated for 48 hrs by absorbance based analysis; type: cell-based
Target sequence in this assay (P14902 whole entry): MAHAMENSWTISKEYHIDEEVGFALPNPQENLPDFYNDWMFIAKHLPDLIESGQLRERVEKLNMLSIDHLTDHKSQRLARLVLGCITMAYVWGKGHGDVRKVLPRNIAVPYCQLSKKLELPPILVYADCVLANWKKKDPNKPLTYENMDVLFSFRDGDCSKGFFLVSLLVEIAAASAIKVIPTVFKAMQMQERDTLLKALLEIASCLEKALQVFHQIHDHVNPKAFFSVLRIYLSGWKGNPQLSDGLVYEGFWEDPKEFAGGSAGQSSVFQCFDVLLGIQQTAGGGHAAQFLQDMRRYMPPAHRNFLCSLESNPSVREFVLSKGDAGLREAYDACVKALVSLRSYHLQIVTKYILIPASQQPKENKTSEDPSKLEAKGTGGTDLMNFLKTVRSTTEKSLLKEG

[2] = biological target: T1, Indoleamine 2,3-dioxygenase 1; experiment: Inhibition of human recombinant IDO1 measured after 60 mins by fluorescence based analysis
Target sequence in this assay (P14902 whole entry): as above

HCT-116 = experiment: cells; settings: Homo sapiens, HCT-116, 48 h
A549 = experiment: cells; settings: Homo sapiens, A549, 48 h
HeLa = experiment: cells; settings: Homo sapiens, 48 h
SW480 = experiment: cells; settings: Homo sapiens, SW480, 48 h
[3] = Toxicity in BALB/c mouse assessed as pathological changes in heart at 50 to 100 mg/kg; type: organism-based; settings: in vivo, dose 50-100 mg/kg
[4] = Toxicity in BALB/c mouse assessed as pathological changes in kidney at 50 to 100 mg/kg; type: organism-based; settings: in vivo, dose 50-100 mg/kg
[5] = Toxicity in BALB/c mouse assessed as pathological changes in spleen at 50 to 100 mg/kg; type: organism-based; settings: in vivo, dose 50-100 mg/kg
[6] = biological target: T1, Indoleamine 2,3-dioxygenase 1; experiment: Binding affinity to human recombinant IDO1 assessed as dissociation constant measured for 60 sec by SPR assay; settings: dose 0.78-25 µM
Target sequence in this assay (P14902 whole entry, looked up): as the sequence (P14902 whole entry) above

[7] = Toxicity in BALB/c mouse assessed as pathological changes in liver at 50 to 100 mg/kg; type: organism-based; settings: in vivo, dose 50-100 mg/kg
CT26 [8] = experiment: Antitumor activity against mouse CT26 cells xenografted in BALB/c mouse model assessed as reduction in tumor weight at 100 mg/kg measured every 3 days for 21 days by caliper method relative to control; type: functional; parameters: scale not given: the % may be the effect or the level left; settings: time 21 day
[9] = biological target: T1, Indoleamine 2,3-dioxygenase 1; experiment: Binding affinity to human recombinant IDO1 heme iron assessed as shift in soret peak at 2 mM by UV-visible spectroscopic analysis (reference value: […])
Target sequence in this assay (P14902 whole entry, looked up): as the sequence (P14902 whole entry) above

CT26 [10] = experiment: Antitumor activity against mouse CT26 cells xenografted in BALB/c mouse model assessed as reduction in tumor weight at 50 mg/kg measured every 3 days for 21 days by caliper method relative to control; type: functional; parameters: scale not given: the % may be the effect or the level left; settings: time 21 day
[11] = Toxicity in BALB/c mouse assessed as pathological changes in lungs at 50 to 100 mg/kg; type: organism-based; settings: in vivo, dose 50-100 mg/kg
[12] = Toxicity in BALB/c mouse assessed as change in body weight at 50 to 100 mg/kg measured upto 22 days; type: organism-based; settings: in vivo, 528 h, dose 50-100 mg/kg, time < 22 day
CT26 [13] = experiment: Antitumor activity against mouse CT26 cells xenografted in BALB/c mouse model assessed as relative tumor volume growth at 50 mg/kg measured every 3 days for 21 days by caliper method relative to control; type: functional; settings: time 21 day
[14] = biological target: T1, Indoleamine 2,3-dioxygenase 1; experiment: Binding affinity to human recombinant IDO1 assessed as dissociation rate constant measured for 60 sec by SPR assay
Target sequence in this assay (P14902 whole entry): as above

CT26 [15] = experiment: Antitumor activity against mouse CT26 cells xenografted in BALB/c mouse model assessed as relative tumor volume growth at 100 mg/kg measured every 3 days for 21 days by caliper method relative to control; type: functional; settings: time 21 day
[16] = Toxicity in BALB/c mouse assessed as change in body weight at 100 mg/kg measured upto 22 days; type: organism-based; settings: in vivo, 528 h, time < 22 day

Row | Structure (SMILES) | IC50 [1] [µM] | IC50 [2] [µM] | IC50 (HCT-116) [µM] | IC50 (A549) [µM] | IC50 (HeLa) [µM] | IC50 (SW480) [µM] | also measured
1 | Cc1ccc2/c(=N/O)cc(C(=O)N3CCN(S(=O)(=O)c4ccc(Br)cc4)CC3)oc2c1 | > 10 | > 10 | 28.3 | 46.1 | > 50 | > 50 | 
2 | COc1ccc2/c(=N/O)cc(C(=O)N3CCN(S(=O)(=O)c4cccc(Br)c4)CC3)oc2c1 | 9.81 | 6.14 | > 50 | > 50 | 44.8 | > 50 | 
3 | COc1ccc2/c(=N/O)cc(C(=O)N3CCN(S(=O)(=O)c4ccc(F)c(F)c4)CC3)oc2c1 | 1.04 | 0.64 | > 50 | > 50 | > 50 | 28.6 | Activity [3]: Non-Toxic; Activity [4]: Non-Toxic; Activity [5]: Non-Toxic; Activity [6]: Dose-Dependent Effect; Activity [7]: Non-Toxic; Activity (CT26 [8]): 60.4%; Activity [9]: 421 nm; Activity (CT26 [10]): 36.2%; Activity [11]: Non-Toxic; Activity [12]: Non-Toxic; Activity (CT26 [13]): 63.52%; koff [14]: 0.11 s⁻¹; Activity (CT26 [15]): 38.01%
4 | COc1ccc2/c(=N/O)cc(C(=O)N3CCN(S(=O)(=O)c4ccc(Br)cc4)CC3)oc2c1 | > 10 | 9.42 | 18.5 | > 50 | > 50 | > 50 | 
5 | COc1ccc2/c(=N/O)cc(C(=O)N3CCN(S(=O)(=O)c4ccc([N+](=O)[O-])cc4)CC3)oc2c1 | 5.66 | 3.58 | > 50 | > 50 | 30.1 | > 50 | 
6 | Cc1ccc2/c(=N/O)cc(C(=O)N3CCN(S(=O)(=O)c4cccc([N+](=O)[O-])c4)CC3)oc2c1 | 8.84 | 7.52 | 6.44 | > 50 | 29.4 | 17.1 | 
7 | COc1ccc(S(=O)(=O)N2CCN(C(=O)c3c/c(=N\O)c4ccc(C)cc4o3)CC2)cc1OC | 7.8 | 6.23 | > 50 | > 50 | > 50 | > 50 | 
8 | COc1ccc2/c(=N/O)cc(C(=O)N3CCN(S(=O)(=O)c4ccc(C(F)(F)F)cc4)CC3)oc2c1 | 6.37 | 2.69 | > 50 | > 50 | > 50 | > 50 | 
9 | COc1ccc2/c(=N/O)cc(C(=O)N3CCN(S(=O)(=O)c4ccccc4C(F)(F)F)CC3)oc2c1 | > 10 | 8.85 | > 50 | > 50 | 38 | > 50 | 
10 | COc1ccc2/c(=N/O)cc(C(=O)N3CCN(S(=O)(=O)c4cccc([N+](=O)[O-])c4)CC3)oc2c1 | 4.46 | 1.95 | 19.4 | > 50 | > 50 | > 50 | 
11 | COc1ccc2/c(=N/O)cc(C(=O)N3CCN(S(=O)(=O)c4cccc(F)c4)CC3)oc2c1 | 4.13 | 2.38 | > 50 | > 50 | 42.8 | > 50 | 
12 | COc1ccc2/c(=N/O)cc(C(=O)N3CCN(S(=O)(=O)c4ccc(Cl)cc4)CC3)oc2c1 | 7.78 | 7.07 | 42 | > 50 | > 50 | 11.6 | 
13 | COc1ccc2/c(=N/O)cc(C(=O)N3CCN(S(=O)(=O)c4ccc(OC)c(OC)c4)CC3)oc2c1 | 1.68 | 0.92 | 47.8 | > 50 | 34 | > 50 | 
14 | Cc1ccc2/c(=N/O)cc(C(=O)N3CCN(S(=O)(=O)c4ccc(F)cc4)CC3)oc2c1 | 9.29 | 9.18 | 34.8 | > 50 | > 50 | 31.2 | 
15 | Cn1cc(C[C@H](N)C(=O)O)c2ccccc21 [(L)-1-METHYLTRYPTOPHAN] |  |  |  |  |  |  | Activity [16]: Non-Toxic; Activity (CT26 [8]): 45.6%
16 | NS(=O)(=O)NCCNc1nonc1/C(=N/O)Nc1ccc(F)c(Br)c1 [EPACADOSTAT] |  |  | > 50 | > 50 | > 50 | > 50 | 
17 | COc1ccc2/c(=N/O)cc(C(=O)N3CCN(S(=O)(=O)c4ccc(F)cc4)CC3)oc2c1 | 7.23 | 5.72 | > 50 | > 50 | > 50 | 12.4 | 
18 | Nc1nonc1C(=NO)Nc1ccc(F)c(Cl)c1 |  |  |  |  |  |  | Activity [16]: Non-Toxic; Activity (CT26 [8]): 70.9%; Activity (CT26 [15]): 26.05%
19 | COc1ccc(S(=O)(=O)N2CCN(C(=O)c3c/c(=N\O)c4ccc(C)cc4o3)CC2)cc1 | > 10 | 9.45 | 1.48 | 41.4 | > 50 | 17.6 | 
20 | COc1ccc2/c(=N/O)cc(C(=O)N3CCN(S(=O)(=O)c4ccc(C)cc4)CC3)oc2c1 | > 10 | > 10 | 31.1 | 36.9 | 20.1 | 33.1 | 
21 | COc1ccc2/c(=N/O)cc(C(=O)N3CCN(S(=O)(=O)c4ccc(Cl)c(Cl)c4)CC3)oc2c1 | 7.61 | 3.73 | > 50 | > 50 | > 50 | > 50 | 
22 | COc1ccc(S(=O)(=O)N2CCN(C(=O)c3c/c(=N\O)c4ccc(OC)cc4o3)CC2)cc1 | 8.52 | 6.35 | 29.5 | > 50 | 36.8 | 39.2 | 
23 | COc1ccc2/c(=N/O)cc(C(=O)N3CCN(S(=O)(=O)c4ccccc4C)CC3)oc2c1 | > 10 | > 10 | 23.5 | > 50 | > 50 | > 50 | 
24 | Cc1ccc2/c(=N/O)cc(C(=O)N3CCN(S(=O)(=O)c4ccc(F)c(F)c4)CC3)oc2c1 | 5.75 | 5.59 | 4.18 | > 50 | > 50 | 27.6 | 
25 | COc1ccc2/c(=N/O)cc(C(=O)N3CCN(S(=O)(=O)c4ccccc4Cl)CC3)oc2c1 | > 10 | > 10 | > 50 | > 50 | > 50 | > 50 | 
26 | Cc1ccc2/c(=N/O)cc(C(=O)N3CCN(S(=O)(=O)c4ccc(Cl)cc4)CC3)oc2c1 | > 10 | > 10 | 15.2 | > 50 | > 50 | > 50 | 

Reference: ChEMBL document CHEMBL5325421, “Discovery of novel sulfonamide chromone-oxime derivatives as potent indoleamine 2,3-dioxygenase 1 inhibitors” (Eur J Med Chem, 2023)
